In paper PMC10981727, “Design, synthesis and bioactivity study on oxygen-heterocyclic-based pyran analogues as effective P-glycoprotein-mediated multidrug resistance in MCF-7/ADR cell” (Scientific Reports, 2024):
Like-named read-outs stand apart in the source and are kept apart here.

Columns and labels:
PC-3 [1] = test: MTT viability assay, PC-3; assay type: cell-based; conditions: MTT, 24 h incubation, mean ± standard error
Protocol: (§1) Using concentrations ranging from 0 to 100 μM against PC-3, SKOV-3, and HeLa cancerogenic cell lines, target compounds 4a–l were assessed for their anticancer activities[53] and compared with the commercially available Vinblastine and Doxorubicin. […] The compounds with the greatest cytotoxic activity against the cancerous cell lines PC-3, SKOV-3, and HeLa were 4a–c, 4g, and 4h. […] We selected the cytotoxic active compounds 4a–c, 4g, and 4h to be evaluated against MCF-7/ADR cancerogenic and HFL-1 and WI-38 non-cancerogenic cell lines (Figs. 7, 8 and Table 1).
(§2) The tumor cell lines (PC-3, SKOV-3, and HeLa), resistant cell strains (MCF-7/ADR) and the normal cell lines, (HFL-1, WI-38) were obtained from the American Type Culture Collection (ATCC, Rockville, MD, USA).
(§3) The tumor cell lines were suspended in medium at concentration 5 × 10^4 cells well^−1 in Corning® 96-well tissue culture plates and then incubated for 24 h. The tested compounds with concentrations ranging from 0 to 100 μM were then added into 96-well plates (six replicates) to achieve six different concentrations for each compound. Six vehicle controls with media or 0.5% DMSO were run for each 96 well plate as a control. After incubating for 24 h, the numbers of viable cells were determined by the MTT test[53]. Briefly, the media was removed from the 96 well plates and replaced with 100 μl of fresh culture RPMI 1640 medium without phenol red then 10 μl of the 12 mM MTT stock solution (5 mg of MTT in 1 ml of PBS) to each well including the untreated controls. The 96-well plates were then incubated at 37 °C and 5% CO2 for 4 h. An 85-μl aliquot of the media was removed from the wells, and 50 μl of DMSO was added to each well and mixed thoroughly with the pipette and incubated at 37 °C for 10 min. Then, the optical density was measured at 590 nm with the microplate reader (Sunrise, TECAN, Inc, USA) to determine the number of viable cells and the percentage of viability was calculated as […] where ODt is the mean optical density of wells treated with the tested sample and ODc is the mean optical density of untreated cells. The relation between surviving cells and drug concentration is plotted to get the survival curve of each tumor cell line after treatment with the specified compound. The 50% inhibitory concentration (IC50), the concentration required to cause toxic effects in 50% of intact cells, was estimated from graphic plots of the dose response curve for each concentration.

SKOV-3 = test: MTT viability assay, SKOV-3; assay type: cell-based; conditions: MTT, 24 h incubation, mean ± standard error
Protocol: as §1, §2, §3

HeLa [2] = test: MTT viability assay, HeLa; assay type: cell-based; conditions: 24 h incubation, mean ± standard error
Protocol: as §1, §2, §3

MCF-7 = tested on: MCF-7; design: method as in PMID 31586716; conditions: Fig. 5, 9-Br first generation derivatives; cited from earlier work
HCT-116 = tested on: HCT-116; design: method as in PMID 31586716; conditions: Fig. 5, 9-Br first generation derivatives; cited from earlier work
HepG-2 = tested on: HepG-2; design: method as in PMID 31586716; conditions: Fig. 5, 9-Br first generation derivatives; cited from earlier work
MDA-MB-231 = tested on: MDA-MB-231; design: method as in PMID 34670333; conditions: Fig. 5, 9-OMe second generation derivatives; cited from earlier work
A549 = tested on: A549; design: method as in PMID 34670333; conditions: Fig. 5, 9-OMe second generation derivatives; cited from earlier work
HeLa [3] = tested on: HeLa; design: method as in PMID 34670333; conditions: Fig. 5, 9-OMe second generation derivatives; cited from earlier work
MIA PaCa-2 = tested on: MIA PaCa-2; design: method as in PMID 34670333; conditions: Fig. 5, 9-OMe second generation derivatives; cited from earlier work
RPMI 7951 = tested on: RPMI 7951; design: method as in PMID 34670333; conditions: Fig. 5, 9-OMe second generation derivatives; cited from earlier work
PC-3 [4] = tested on: PC-3; design: method as in PMID 34670333; conditions: Fig. 5, 9-OMe second generation derivatives; cited from earlier work

IC50 (PC-3 [1]; Homo sapiens, PC-3) [µM]	IC50 (SKOV-3; Homo sapiens, SK-OV-3) [µM]	IC50 (HeLa [2]; Homo sapiens, HeLa) [µM]	melting point [°C]	SMILES	IC50 (MDA-MB-231) [µM]	IC50 (A549) [µM]	IC50 (HeLa [3]) [µM]	IC50 (MIA PaCa-2) [µM]	IC50 (RPMI 7951) [µM]	IC50 (PC-3 [4]) [µM]	also measured
8.8 ± 0.7	35.6 ± 0.4	21.9 ± 1.1	285 to 286	N#CC1=C(N)Oc2ccc3ccc(O)cc3c2C1c1ccc(Cl)cc1 (stereo not shown) [4d, 3-Amino-1-(4-chlorophenyl)-9-hydroxy-1H-benzo[f]chromene-2-carbonitrile]	–	–	–	–	–	–	–
8.8 ± 1.2	4.8 ± 1.1	7.9 ± 1.6	285 to 286	N#CC1=C(N)Oc2ccc3ccc(O)cc3c2C1c1ccc(Br)cc1 (stereo not shown) [4e, 3-Amino-1-(4-bromophenyl)-9-hydroxy-1H-benzo[f]chromene-2-carbonitrile]	–	–	–	–	–	–	–
37.2 ± 1.3	35.2 ± 1.3	33.7 ± 1.3	258 to 259	Cc1ccc(C2C(C#N)=C(N)Oc3ccc4ccc(O)cc4c32)cc1 (stereo not shown) [4f, 3-Amino-1-(4-methylphenyl)-9-hydroxy-1H-benzo[f]chromene-2-carbonitrile]	–	–	–	–	–	–	–
3.2 ± 1	3.5 ± 0.3	3.3 ± 0.3	269 to 279	N#CC1=C(N)Oc2ccc3ccc(O)cc3c2C1c1ccc(OCc2ccccc2)cc1 (stereo not shown) [4i, 3-Amino-1-(4-(benzyloxy)phenyl)-9-hydroxy-1H-benzo[f]chromene-2-carbonitrile]	–	–	–	–	–	–	–
6.6 ± 0.5	3.9 ± 0.6	2.5 ± 0.2	260 to 261	N#CC1=C(N)Oc2ccc3ccc(O)cc3c2C1c1ccc2c(c1)OCO2 (stereo not shown) [4j, 3-Amino-1-(benzo[d][1,3]dioxol-5-yl)-9-hydroxy-1H-benzo[f]chromene-2-carbonitrile]	–	–	–	–	–	–	–
10.6 ± 0.5	6.3 ± 0.8	76.4 ± 0.7	296 to 297	N#CC1=C(N)Oc2ccc3ccc(O)cc3c2C1c1cccnc1 (stereo not shown) [4k, 3-Amino-9-hydroxy-1-(pyridin-3-yl)-1H-benzo[f]chromene-2-carbonitrile]	–	–	–	–	–	–	–
17.7 ± 0.7	5.1 ± 0.8	11.5 ± 0.9	294 to 295	N#CC1=C(N)Oc2ccc3ccc(O)cc3c2C1c1ccncc1 (stereo not shown) [4l, 3-Amino-9-hydroxy-1-(pyridin-4-yl)-1H-benzo[f]chromene-2-carbonitrile]	–	–	–	–	–	–	–
–	–	–	–	CC[C@]1(O)C[C@@H]2CN(CCc3c([nH]c4ccccc34)[C@@](C(=O)OC)(c3cc4c(cc3OC)N(C)[C@H]3[C@@](O)(C(=O)OC)[C@H](OC(C)=O)[C@]5(CC)C=CCN6CC[C@]43[C@@H]65)C2)C1 [Vinblastine, reference compound]	–	–	–	–	–	–	IC50 (PC-3 [1]): 7.5 ± 1.3 µM; IC50 (SKOV-3): 3.2 ± 1.2 µM; IC50 (HeLa [2]): 5.7 ± 1.1 µM
–	–	–	–	N#CC1=C(N)Oc2ccc3ccc(Br)cc3c2C1c1cccc(Cl)c1 (stereo not shown) [compound 1]	–	–	–	–	–	–	IC50 (MCF-7): 45.8 µM; IC50 (HCT-116): 1.36 µM; IC50 (HepG-2): 0.77 µM
–	–	–	–	N#CC1=C(N)Oc2ccc3ccc(Br)cc3c2C1c1ccc(Cl)cc1 (stereo not shown) [compound 2]	–	–	–	–	–	–	IC50 (MCF-7): 9.63 µM; IC50 (HCT-116): 0.8 µM; IC50 (HepG-2): 1.67 µM
–	–	–	–	N#CC1=C(N)Oc2ccc3ccc(Br)cc3c2C1c1cccc(Cl)c1Cl (stereo not shown) [compound 3]	–	–	–	–	–	–	IC50 (MCF-7): 0.49 µM; IC50 (HCT-116): 0.64 µM; IC50 (HepG-2): 7.59 µM
–	–	–	–	COc1ccc2ccc3c(c2c1)C(c1ccc(Br)cc1)C(C#N)=C(N)O3 (stereo not shown) [compound 6]	7.8	12.7	11.6	6.8	5.9	13.6	–
–	–	–	–	COc1ccc2ccc3c(c2c1)C(c1ccc(I)cc1)C(C#N)=C(N)O3 (stereo not shown) [compound 7]	8.9	13.1	12.1	6.2	6.5	12.9	–
–	–	–	–	COc1ccc2ccc3c(c2c1)C(c1ccc(Cl)cc1Cl)C(C#N)=C(N)O3 (stereo not shown) [compound 8]	7.1	6.8	7.6	6	5.3	8.7	–
–	–	–	–	COc1ccc2ccc3c(c2c1)C(c1cc(Cl)ccc1Cl)C(C#N)=C(N)O3 (stereo not shown) [compound 9]	8.1	8.5	13.2	6.8	5.7	11.5	–
–	–	–	–	COc1ccc2ccc3c(c2c1)C(c1ccc(Cl)c(Cl)c1)C(C#N)=C(N)O3 (stereo not shown) [compound 10]	8.4	13.6	12.9	6.2	5.1	14.6	–
